The source of these data is paper PMC4099323, “Inhibition of Catalase by Tea Catechins in Free and Cellular State: A Biophysical Approach” (PLoS ONE, 2014).

In general, IC50 refers to the concentration at which inhibition is half-maximal.

The test system of one assay is K562 cells. As to the kind of experiment: MTT cell viability assay. Format: cell-based. As to conditions: Homo sapiens. On the procedure:
Cell viability of K562 cells was quantified by MTT based colorimetric assay as described elsewhere. Briefly, cells were rinsed with PBS and 0.5 mg/ml MTT was added into each sample. The mixture was incubated at 37°C for an additional 3 h. At the end of incubation period, the medium containing MTT was removed and the pellet was dissolved in 200 µl DMSO. Absorbance was measured at a wavelength of 570 nm. Cell viability was expressed as a percentage of the control culture.
The concentration (IC50) at which the K562 cell survivability was reduced to 50% was calculated for EGCG and 3-AT by MTT based cell viability assay.

For the next assay, the target named is Bcl-2 proteins. As to conditions: read-out: inhibition constant (K i); cited from earlier work.
In assay [1] the target is T1, Catalase (from bovine liver) (Bos taurus, UniProt P00432).
T1 construct: Catalase (from bovine liver); purchased Sigma-Aldrich, St. Louis, MO, USA; host or cells: bovine liver
T1 sequence (P00432 2-527 limits assumed): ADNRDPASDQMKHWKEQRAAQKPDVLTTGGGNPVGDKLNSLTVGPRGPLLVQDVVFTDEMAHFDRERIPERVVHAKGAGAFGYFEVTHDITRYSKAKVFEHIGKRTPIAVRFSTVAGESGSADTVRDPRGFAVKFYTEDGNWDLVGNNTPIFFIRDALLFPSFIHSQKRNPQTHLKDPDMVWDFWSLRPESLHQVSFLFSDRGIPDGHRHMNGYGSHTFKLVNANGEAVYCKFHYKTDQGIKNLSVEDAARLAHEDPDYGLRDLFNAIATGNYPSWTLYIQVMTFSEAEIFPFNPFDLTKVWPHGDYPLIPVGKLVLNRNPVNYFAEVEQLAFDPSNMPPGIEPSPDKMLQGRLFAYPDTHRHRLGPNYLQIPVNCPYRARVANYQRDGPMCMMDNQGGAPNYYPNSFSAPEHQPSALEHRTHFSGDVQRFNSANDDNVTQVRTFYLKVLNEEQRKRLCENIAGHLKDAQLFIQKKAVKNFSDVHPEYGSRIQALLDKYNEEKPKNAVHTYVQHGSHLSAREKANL
As to the kind of experiment: Circular dichroism: catechin-induced conformational change in catalase. Conditions: catalase 1 µM, ligands 3 µM each, 25°C. On the procedure: All the CD experiments were carried out on a Jasco-815 automatic spectropolarimeter (Jasco International Co., Ltd. Hachioji, Japan) equipped with a peltier cuvette holder and temperature controller PFD425 L/15. The catalase concentration and path length of the cuvette used were 1 µM and 0.1 cm, respectively. The instrument parameters were set at scanning speed of 50 nm/min, bandwidth of 1.0 nm and sensitivity of 100 milli degree. The molar ellipticity values are expressed in terms of mean residue molar ellipticity, in units of deg. cm^2 dmol^−1.
CD allows investigation of the conformational changes that occur in a protein upon ligand binding. The CD spectra of catalase at pH 7.4 in the absence and in the presence of EGC, EC, ECG, EGCG, and 3-AT at 25°C are represented in Figure 5 (a – f). […] The negative band at 208 and 220 nm decreased in intensity with the addition of various catechins, which is indicative of the loss of α-helicity upon interaction. […] From the CD spectra, the effect of catechins on the secondary structure of catalase is in the following order: 3-AT>EGCG>ECG>EC>EGC.
(Circular dichroism is the unequal absorption of left and right circularly polarised light.)

In the case of `O=C(O[C@@H]1Cc2c(O)cc(O)cc2O[C@@H]1c1cc(O)c(O)c(O)c1)c1cc(O)c(O)c(O)c1` [EGCG, (−)-epigallocatechin gallate], the IC50 was determined as 54.5 µM in the assay on K562 cells and 27 µg/mL in the assay on K562 cells (conversion of the µM value). In addition, on Bcl-2 proteins, the Ki was 0.33 to 0.49 µM. Moreover, the “order of effect on the secondary structure of catalase (loss of α-helicity)” value in assay [1] is recorded as 3-AT>EGCG>ECG>EC>EGC.
